# Results reported in PubChem BioAssay AID743179 (NMMLSC, 2013).
# Calls of active or inactive are those of the source.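 Rule for the calls: active = at least 15% of cells MAC1 differentiation marker positive at top dose, with half-maximal concentration under 10 µM; inactive = the rest.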
# Test system: not listed separately
# Assay: MAC1 induction in THP1 leukemia cells – cell-based, MAC1 flow cytometry, set 1, SAR follow-up (AID 743179)
# Settings: THP1 MAC1+ differentiation, flow cytometry, 4 days; at 10 µM (top of the series)
row,Structure (SMILES),"MAC1+ percent, differentiation"
1,Cc1ccc(C(=O)NCCC(=O)N[C@@H]2CCCc3ccccc32)cc1,97% (inactive)
2,CC(c1ccccc1)N(C)C(=O)CCNC(=O)c1ccc(Cl)cc1 (stereo not given),7% (inactive)
3,O=C(CCNC(=O)c1ccccc1)N[C@@H]1CCCc2ccccc21,2% (inactive)
4,O=C(CNC(=O)c1ccc(Cl)c(Cl)c1)N[C@@H]1CCCc2ccccc21,6% (inactive)
5,O=C(CCNC(=O)c1ccc(Cl)cc1)NC1CCCCC1,3% (inactive)
6,Cc1cccc(C(=O)NCCC(=O)NC2CCCc3ccccc32)c1 (stereo not given),4% (inactive)
7,CC(NC(=O)C1CCCN(C(=O)c2ccc(Cl)cc2)C1)c1ccccc1 (stereo not given),6% (inactive)
8,CC(=O)NCCC(=O)N[C@@H]1CCCc2ccccc21,2% (inactive)
9,O=C(CCCNC(=O)c1ccc(C(F)(F)F)cc1)N[C@@H]1CCCc2ccccc21,2% (inactive)
10,O=C(CCNC(=O)c1ccc(Cl)c(Cl)c1)N[C@@H]1CCCc2ccccc21,109% (inactive)
11,O=C(NC1CCOc2ccccc21)C1CCCN(C(=O)c2ccc(Cl)cc2)C1 (stereo not given),5% (inactive)
12,O=C(O)c1ccccc1OCc1ccccc1Br,4% (inactive)
13,C[C@@H](NC(=O)CCNC(=O)c1ccc(Cl)cc1)c1ccccc1,5% (inactive)
14,O=C(CCNC(=O)c1ccc(Cl)cc1)N[C@@H]1CCc2ccccc21,21% (inactive)
15,CC(NC(=O)CCNC(=O)c1ccc(Cl)cc1)c1ccc(F)cc1 (stereo not given),6% (inactive)
16,Cc1ccc(C)c(OCCn2cc(C(=O)O)c3ccccc32)c1,2% (inactive)

row,Structure (SMILES),"MAC1+ percent, differentiation"
1,N#Cc1ccc(C(=O)NCCC(=O)N[C@@H]2CCCc3ccccc32)cc1,17% (inactive)
2,O=C(CNC(=O)c1ccc(Cl)cc1)N[C@@H]1CCCc2ccccc21,4% (inactive)
3,O=C(CCCNC(=O)c1ccc(Cl)cc1)N[C@@H]1CCCc2ccccc21,5% (inactive)
4,CC(C)(C)OC(=O)NCCC(=O)N[C@H]1CCCc2ccccc21,2% (inactive)
5,O=C(CCCNC(=O)c1ccc(Cl)c(Cl)c1)N[C@@H]1CCCc2ccccc21,3% (inactive)
6,O=C(Cc1ccc(Cl)cc1)NCCC(=O)N[C@@H]1CCCc2ccccc21,13% (inactive)
7,COc1ccccc1C(C)NC(=O)CCNC(=O)c1ccc(Cl)cc1 (stereo not given),-1% (inactive)
8,O=C(CCNC(=O)c1ccc(F)cc1)N[C@@H]1CCCc2ccccc21,46% (inactive)
9,O=C(CNC(=O)c1ccc(OC(F)(F)F)cc1)N[C@@H]1CCCc2ccccc21,3% (inactive)
10,O=C(CCNC(=O)c1ccc(Cl)cc1)N[C@H]1CCCc2ccccc21,7% (inactive)
11,O=C(CNC(=O)c1ccc(C(F)(F)F)cc1)N[C@@H]1CCCc2ccccc21,3% (inactive)
12,O=C(CCCNC(=O)c1ccc(OC(F)(F)F)cc1)N[C@@H]1CCCc2ccccc21,3% (inactive)
13,CC(NC(=O)CCNC(=O)c1ccc(Cl)cc1)c1ccc2c(c1)OCO2 (stereo not given),5% (inactive)
14,NCCC(=O)N[C@@H]1CCCc2ccccc21,1% (inactive)
15,O=C(NC1CCc2ccccc21)C1CCCN(C(=O)c2ccc(Cl)cc2)C1 (stereo not given),4% (inactive)
16,CC(C)(C)OC(=O)NCCC(=O)N[C@@H]1CCCc2ccccc21,2% (inactive)

# Test system: THP1 MAC1+ differentiation, flow cytometry, 4 days
# Assay: as above
# Settings: not given
row,Structure (SMILES),EC50
1,O=C(O)c1cccnc1Nc1ccc(Cl)cc1,5.49 µM
2,O=C(CCNC(=O)c1ccc(Cl)cc1)NC1CCCc2ccccc21 (stereo not given),3.79 µM
3,O=C(CCNC(=O)c1cccc(Cl)c1)N[C@@H]1CCCc2ccccc21,9.14 µM
4,O=C(CCNC(=O)c1ccc(Cl)cc1)N[C@@H]1CCCc2ccccc21,3.09 µM
5,COc1ccc(C(=O)NCCC(=O)N[C@@H]2CCCc3ccccc32)cc1,5.16 µM
6,O=C(CCNC(=O)c1ccc(C(F)(F)F)cc1)N[C@@H]1CCCc2ccccc21,2.49 µM
7,O=C(CCNC(=O)c1ccc2c(c1)OC(F)(F)O2)N[C@@H]1CCCc2ccccc21,4.28 µM
8,O=C(CCNC(=O)c1ccc(OC(F)(F)F)cc1)N[C@@H]1CCCc2ccccc21,2.07 µM
